Experimental data reported in patent US5880076A, “Compositions comprising glycacarbamate and glycaurea compounds” (Lever Brothers Company, Division of Conopco, Inc., priority 1997, dated 1999).

What was measured:
[1] = Critical Micelle Concentration (micelle formation); format: physicochemical; conditions: 40° C.
Source text: The critical micelle concentration (CMC) is defined as the concentration at which a surfactant forms micelles in aqueous solution. […] A necessary and sufficient condition for CMC formation and surface tension reduction is the presence of both hydrophilic and hydrophobic functional groups. The hydrophilic portion provides strong interaction between the surfactant at the interface and with the surrounding water phase. The hydrophobic portion provides spontaneous adsorption of the surfactant at the interface and strong interaction with the adjacent air phase. If any of these functions are not performed, then CMC formation and surface tension reduction will not occur. For significant surface activity, a properly balanced hydrophilic and hydrophobic character is essential.

[2] = Surface Tension Reduction; format: physicochemical; conditions: 40° C.
Source text: An important characteristic feature that surfactants have is the tendency for them to absorb at the water/air interface in an oriented manner, thereby altering the interfacial free energy of that surface. The surface free energy per unit area or surface tension (γ), is a measure of this work and may be considered as the minimum amount of work required to bring sufficient surfactant molecules to the surface.

[3] = Viscosity Modification of Sodium Lauryl Sulfate prototype detergent compositions; format: physicochemical; conditions: for Appearance (viscosity) / Viscosity Increase: 15.0% sodium lauryl sulfate; for Viscosity Increase: 22° C.
Experimental: The prototype detergent compositions are as follows:
(§1) Detergent Compositions Comprising Sodium
(§2) Lauryl Sulfate and Glycacarbamate Compounds
N-Dodecyl D-Glucocarbamate
2.0-7.0% Foam Stabilizer/Thickener
2.0% Viscosity Cobuilder
(§3) Lauryl Sulfate and Glycaurea Compounds
(§4) The above formulations were prepared by admixing the above ingredients in listed order and heating the mixture to about 80° C. with rapid stirring. The mixture was then cooled to about 40° C., placed in a clear jar and stored at room temperature.
It is well known that the viscosity of a liquid composition comprision of anionic surfactant can be modified by the addition of inorganic salts, such as sodium chloride. However, in the absence of an organic modifier, high levels of salt may be necessary to achieve the required viscosity which may lead to problems of storage at cold temperature or even salting our certain ingrediets. In practice, however, the viscosity of a liquid compositionis modified by the simultaneous addition of thickener and small amounts of inorganic salt (viscosity cobuilder). The combined effect is greater than either one alone. The viscosity of the above prototype detergent compositions comprising various amounts of glycacarbamate/urea compound are as follows: […]

[4] = Clarity Enhancement of prototype detergent compositions; format: physicochemical; conditions: detergent formulation
Experimental: The formulations were placed in a clear jar and stored for 1 month. The prototype detergent compositions are as follows:
as §1, §2
N-Coconut D-Glucocarbamate
0.5-4.0% Foam Stabilizer/Thickener
as §3, §4
For a clear detergent formulation to be successful it must have good shelf life and should not become turbid or produce sedimentation upon standing.

[5] = Flow aids: water uptake and appearance of intimate admixtures; format: physicochemical; conditions: intimate admixtures with ODS, SCMOS, CP-5 or CP-7
Source text: It is known in the are that certain ingredients are hygroscopic in nature and liquify after exposure to moisture after a few days. […] Samples were removed periodically, weighed and returned to R. H. chamber. Percent water uptake was based on the amound of builder present. % H2 O Uptake=grams of water absorbed/grams of builder×100 Identical mixtures of ODS, SCMOS, CP-5 or CP-7 and methyl α-D-glucose-6-O-monolaurate (c12 Mgluc), dodecyl β-D-glucopyranoside (C12 Gluc), dodecyl β-D-maltoside (C12 Malt), D-glucose or D-sorbitol were also prepared and are used for comparison. When the comparative sugar surfactant of monosacchardie are used, percent water uptake was based on the amount of saccharide present. % H2 O Uptake=grams of water absorbed/grams of saccharide×100

[6] = Water Solubility and Krafft Point (0.1% solution in water, 40° C.); conditions: 40° C.
Source text: The temperature at which a surfactant forms micelles instead of precipitates is referred to as the Krafft point (Tk), and at or below this temperature the solubility of a surfactant becomes equal to its CMC (numerical value at which micelles are formed).

[7] = Viscosity Enhancement/Foam Stabilization (Brookfield Digital Viscometer)

## CCCCCCCCCCCCN(C[C@H](O)[C@@H](O)[C@H](O)[C@H](O)CO)C(N)=O [N-Dodecyl D-Glucourea]
[1]
  CMC at 40° C. (micelle formation): Yes
[1]; listed as M
  CMC at 40° C. (micelle formation): do not form micelles
[2]
  Surface tension reduction (γ) at 40° C.: Yes
[2]; listed as M
  Surface tension reduction (γ) at 40° C.: do not significantly reduce the surface tension of water
[3]; 2.0% thickener
  Appearance (viscosity): Slightly Viscous
  Viscosity Increase: Yes
[3]; 4.0% thickener
  Appearance (viscosity): Viscous
  Viscosity Increase: Yes
[3]; 7.0% thickener
  Appearance (viscosity): Very Viscous
  Viscosity Increase: Yes
[3]; compared with D-glucose
  viscosity increase (in words): increases the viscosity of that composition more effectively than D-glucose
[4]
  clarity (in words): clear without sedimentation
[5]
  handling and flowing characteristics (in words): improved the handling and flowing characteristics
[6]
  H2O Solubility at 40° C.: Yes
  Krafft point (Tk): Below Tk
[6]; listed as M
  H2O Solubility at 40° C.: insoluble in water
[7]; 4.0% thickener
  Foam Stability: Yes
  viscosity increase from normal viscosity: 99-104 times
[7]; 4.0% thickener, 22° C.
  Viscosity (Centipoise): 2295 Centipoise
[7]; 4.0% thickener, listed as N-dodecyl D-glucourea
  Foam Stability: stabilize foam
[7]; compared with lauramide DEA, cocoamide MEA, Neodol 91-6 and D-glucose
  viscosity enhancement and foam stabilization (comparison in words): enhance viscosity and stabilze foam compartively to lauramide diethanolamine (DEA), but better than cocoamide menoethanolamine (MEA), Neodol 91-6 (C9 -C11 alcohol ethoxylate with 6 moles of ethylene oxide) and D-glucose
